Results on two compounds are retold here after patent US20190216731A1, “PROCESS FOR PROVIDING PARTICLES WITH REDUCED ELECTROSTATIC CHARGES” (Chiesi Farmaceutici S.p.A., priority 2010, published 2019).

For data set [1] the following is noted: cited from earlier work.
Data set [2] can be described thus: Dispersive surface energy by inverse gas chromatography (IGC). Type of data set: physicochemical. The conditions noted are these: IGC at 25° C., 0% RH, FIG. 1. The procedure: The surface energies were measured by inverse gas chromatography (IGC). All analyses were carried out using the SMS-iGC 2000 and the SMS-iGC v1.3 standard analysis suite and SMS-iGC v1.21 advanced analysis suite of macros. A flame ionization detector (FID) was used to determine the retention times. The samples were stored in a cold (˜5° C.), dry environment until run on the IGC. For all experiments, the powders were packed into a silanized glass column (300 mm long by 4 mm diameter) using the SMS Column Packing Accessory. All columns were analyzed 3 times sequentially to check for irreversible chemisorption effects and equilibrium after preconditioning.
In this study, the columns were pre-treated for 2 hours at 25° C. and 0% RH in a helium carrier gas to condition the sample. Then, the surface energy measurements were performed at 25° C. (3 times sequentially with a 2-hour conditioning between runs). All experiments were carried out at 10 sccm total flow rate of helium, and injection vapor concentration of 0.03 P/0 for all elutants.

With `O.OC[C@H]1O[C@@H](O[C@H]2[C@H](O)[C@@H](O)[C@@H](O)O[C@@H]2CO)[C@H](O)[C@@H](O)[C@H]1O` [Meggle D30 reference, α-lactose monohydrate], the “dispersive surface energy, values reported in the literature” value in data set [1] is on record as 41 mJm^−2. This compound gave a dispersive surface energy in data set [2] of 41.8 mJm^−2.

Turning to magnesium stearate, the “dispersive surface energy, values reported in the literature” value in data set [1] is listed as 41 mJm^−2. This compound also returned a dispersive surface energy in data set [2] of 42.1 mJm^−2.
